Assays:
mouse liver [1] = details: GeneChip, 1 h after 20 ug/kg IL-1β ip, pretreated 5 days with vehicle or 100 ug/kg/day EE sc, vehicle+PBS=1.0
Procedure: Experiments were conducted to evaluate IL-1β regulation of gene expression in the mouse liver. Ovariectomized C57BL/6 mice were pretreated by subcutaneous administration of either corn oil/ethanol vehicle or 100 ug/kg/day ethynylestradiol (EE) for 5 days. On the fifth day, the mice received an intraperitoneal injection of either PBS or 20 ug/kg IL-1β in PBS. One hour later the livers were removed and polyA RNA was prepared. Global gene expression was determined by analysis using murine 11K GeneChips from Affymetrix. For each gene, the level of expression in animals receiving vehicle pretreatment plus PBS was defined as 1.0, with the expression levels in the mice receiving vehicle pretreatment±IL-1β or EE pretreatment±IL-1β defined relative to this. The results shown are the mean from two independent experiments.
The fold regulation of each gene is plotted for animals receiving vehicle pretreatment x-axis) vs. animals receiving pretreatment with EE (y-axis). Genes with IL-1β induction unaffected by EE pretreatment would lie along the dotted diagonal.

mouse liver [2] = experiment: EE induction of gene expression in the mouse liver (GeneChip); type: in vivo; details: 100 ug/kg/day EE sc 5 days;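 note: ovariectomized C57BL/6 mice, liver polyA RNA on Affymetrix murine 11K GeneChips, fold expression versus vehicle-pretreated PBS-injected mice set to 1.0, mean of two independent experiments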
Procedure: Ovariectomized C57BL/6 mice were pretreated by subcutaneous administration of either corn oil/ethanol vehicle or 100 ug/kg/day ethynylestradiol (EE) for 5 days. […] One hour later the livers were removed and polyA RNA was prepared. Global gene expression was determined by analysis using murine 11K GeneChips from Affymetrix. For each gene, the level of expression in animals receiving vehicle pretreatment plus PBS was defined as 1.0, with the expression levels in the mice receiving vehicle pretreatment±IL-1β or EE pretreatment±IL-1β defined relative to this. The results shown are the mean from two independent experiments.
To determine whether EE induction of any other gene could explain the inhibition of IL-1β gene inductions, the GeneChip results were analyzed for EE induction of gene expression.

Fnk, JAB, LIX, and bcl-3 = experiment: EE alteration of IL-1β induction of Fnk, JAB, LIX and bcl-3 in liver, spleen and lung; type: in vivo, mouse; details: EE pretreatment
Text: The requirement for ERα for EE activity in the liver is consistent with the nearly exclusive presence of ERα in the liver (as determined by realtime PCR, panel A). In contrast, the lung expresses relatively low levels of ERα and high levels of ERB. […] In contrast, EE pretreatment had no effect on IL-1β induction of Fnk, JAB, LIX, or bcl-3 in the lung.

[3] = tested on: Fnk, JAB, LIX, bcl-3 and SHP; experiment: Liver expression of Fnk, JAB, LIX, bcl-3 and SHP by realtime PCR after estrogen receptor ligand pretreatment and IL-1β
Procedure: Referring to FIG. 3a, to distinguish these two mechanisms, the IL-1β fold induction of Fnk, JAB, LIX, and bcl-3 and the IL-1β fold repression of SHP was quantified in animals pretreated with vehicle (black bars) or 100 ug/kg/day EE (grey bars). Liver RNA levels of each gene (mean +/−SEM) were determined by realtime PCR of RNA from each individual animal.
Referring to FIGS. 4a, 4b, 4c, 4d and 4e, experiments were conducted to determine whether EE blocks IL-1β induction of gene expression by an estrogen receptor (ER) dependent mechanism. Estrogens can regulate gene expression by many mechanisms including ER independent pathways such as antioxidant mechanisms. […] Liver expression levels of Fnk, JAB, LIX, bcl-3 and SHP (mean +/−SEM) were determined by realtime PCR.
Referring to FIGS. 5a, 5b, 5c, 5d, and 5e, experiments were conducted to determine whether ERα is required for EE regulation of gene expression in the liver. To determine whether ERα or ERβ mediated the EE effects on IL-1β gene expression in the liver, C57BL/6 wild type mice, C57BL/6 ERαKO mice, or 129 ERβKO mice were pretreated with vehicle (black bars) or […] EE (gray bars) for 5 days followed by a 1 hour treatment with IL-1β. Liver expression levels of Fnk, JAB, LIX, bcl-3, and SHP (mean +/−SEM) were quantified by realtime PCR, with expression in animals receiving vehicle+PBS defined as 1.0.

[4] = mouse liver, EE treated mice vs vehicle treated mice
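Throughout, for IL-1 Induction A20 (Tnfaip3): ovariectomized C57BL/6 mice, liver polyA RNA profiled, values are fold expression relative to vehicle plus PBS, averaged over two independent experiments.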
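Throughout, for IL-1 Induction B94, TNF-α induced protein 2 (Tnfaip2): ovariectomized C57BL/6 mice, liver polyA RNA profiled, values are fold expression relative to vehicle plus PBS, averaged over two independent experiments.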
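Throughout, for IL-1 Induction C/EBPδ (Cebpd): ovariectomized C57BL/6 mice, liver polyA RNA profiled, values are fold expression relative to vehicle plus PBS, averaged over two independent experiments.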
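Throughout, for IL-1 Induction CD14 (Cd14): ovariectomized C57BL/6 mice, liver polyA RNA profiled, values are fold expression relative to vehicle plus PBS, averaged over two independent experiments.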

SMILES: C#C[C@]1(O)CC[C@H]2[C@@H]3CCc4cc(O)ccc4[C@H]3CC[C@@]21C [EE, ethynylestradiol]
- IL-1 Induction A20 (Tnfaip3) (mouse liver [1]): 11.4 fold
- IL-1 Induction B94, TNF-α induced protein 2 (Tnfaip2) (mouse liver [1]): 17.7 fold
- IL-1 Induction C/EBPδ (Cebpd) (mouse liver [1]): 5.2 fold
- IL-1 Induction CD14 (Cd14) (mouse liver [1]): 6.1 fold
- IL-1 Induction CD83 (Cd83) (mouse liver [1]): 4.0 fold
- IL-1 Induction E-selectin (Sele) (mouse liver [1]): 5.2 fold
- IL-1 Induction Ets transcription factor ELF3 (Elf3) (mouse liver [1]): 6.7 fold
- IL-1 Induction G0/G1 switch gene 2 (G0s2) (mouse liver [1]): 0.05 fold
- IL-1 Induction GTP binding protein IRG-47 (lfi47) (mouse liver [1]): 3.2 fold
- IL-1 Induction Gadd45 (Gadd45a) (mouse liver [1]): 3.6 fold
- IL-1 Induction Glvr-1 (Slc20a1) (mouse liver [1]): 5.8 fold
- IL-1 Induction H-2Ld (H-2L) (mouse liver [1]): 4.1 fold
- IL-1 Induction ICAM-1 (lcam1) (mouse liver [1]): 38.4 fold
- IL-1 Induction IL-1m (Il1m) (mouse liver [1]): 18.9 fold
- IL-1 Induction IL-15 receptor (Il15ra) (mouse liver [1]): 2.7 fold
- IL-1 Induction IxBa (Nfkbia) (mouse liver [1]): 7.4 fold
- IL-1 Induction JAB, suppressor of cytokine signaling 1 (Cish1) (mouse liver [1]): 1.4 fold
- IL-1 Induction JE/MCP-1 (Scya2) (mouse liver [1]): 64.4 fold
- IL-1 Induction LIX (Scyb5) (mouse liver [1]): 2.9 fold
- IL-1 Induction LPS inducible C—C chemokine receptor related (AF030185) (mouse liver [1]): 5.6 fold
- IL-1 Induction M-CSF (Csf1) (mouse liver [1]): 23.9 fold
- IL-1 Induction MARCKS-like macrophage protein (Mlp) (mouse liver [1]): 5.1 fold
- IL-1 Induction MIG (Scyb9) (mouse liver [1]): 5.4 fold
- IL-1 Induction MIP2 (Scyb2) (mouse liver [1]): 91.1 fold
- IL-1 Induction MIP-1 gamma (Scya9) (mouse liver [1]): 1.9 fold
- IL-1 Induction MyD118 (GADD45b) (mouse liver [1]): 12.9 fold
- IL-1 Induction NF-E2 related factor 2 (NRF2) (Nfe212) (mouse liver [1]): 7.2 fold
- IL-1 Induction NF-kappa-B p105 (Nfkb1) (mouse liver [1]): 6.2 fold
- IL-1 Induction NFkB p100 (Nfkb2) (mouse liver [1]): 2.8 fold
- IL-1 Induction PAI-1 (Serpine1) (mouse liver [1]): 40.8 fold
- IL-1 Induction PDGF-induced KC (Gro1) (mouse liver [1]): 6.1 fold
- IL-1 Induction PIM-1 protein kinase (Pim1) (mouse liver [1]): 2.1 fold
- IL-1 Induction SHP (NrGb2) (mouse liver [1]): 0.53 fold
- IL-1 Induction T-cell death associated gene (Tdag) (mouse liver [1]): 2.2 fold
- IL-1 Induction T-cell specific GTPase (Tgtp) (mouse liver [1]): 2.8 fold
- IL-1 Induction TGFB inducible early growth response (Tieg) (mouse liver [1]): 0.38 fold
- IL-1 Induction Ubiquitin-conjugating E2 enzyme variant 2 (Ube2v2) (mouse liver [1]): 5.3 fold
- IL-1 Induction VCAM-1 (Vcam1) (mouse liver [1]): 12.5 fold
- IL-1 Induction adrenergic receptor, beta 2 (Adrb2) (mouse liver [1]): 3.1 fold
- IL-1 Induction adrenomedullin (Adm) (mouse liver [1]): 10.0 fold
- IL-1 Induction apoptosis inhibitor 1 (Birc2) (mouse liver [1]): 8.9 fold
- IL-1 Induction apoptosis inhibitor 2 (Birc3) (mouse liver [1]): 4.3 fold
- IL-1 Induction bcl-3 (Bcl3) (mouse liver [1]): 6.2 fold
- IL-1 Induction c-JUN (Jun) (mouse liver [1]): 5.6 fold
- IL-1 Induction calcium binding protein A6 (S100a6) (mouse liver [1]): 2.6 fold
- IL-1 Induction calgranulin A (S100A8) (mouse liver [1]): 10.7 fold
- IL-1 Induction calgranulin B (S100a9) (mouse liver [1]): 25.7 fold
- IL-1 Induction cytokine-inducible kinase Fnk (Cnk) (mouse liver [1]): 0.3 fold
- IL-1 Induction gly96 (ler3) (mouse liver [1]): 43.8 fold
- IL-1 Induction growth factor receptor bound protein 7 (Grb7) (mouse liver [1]): 0.13 fold
- IL-1 Induction guanylate nucleotide binding protein 2 (Gbp2) (mouse liver [1]): 3.6 fold
- IL-1 Induction helix-loop-helix factor HES-1 (Hes1) (mouse liver [1]): 0.25 fold
- IL-1 Induction heme oxygenase 1 (Hmox1) (mouse liver [1]): 3.0 fold
- IL-1 Induction hsp68 (Hsp70-3) (mouse liver [1]): 1.5 fold
- IL-1 Induction inducible 6-phosphofructo-2-kinase (AA163244) (mouse liver [1]): 3.0 fold
- IL-1 Induction inhibitor of DNA binding 3 (idb3) (mouse liver [1]): 3.1 fold
- IL-1 Induction insulin-like growth factor binding protein 1 (lgfbp1) (mouse liver [1]): 4.3 fold
- IL-1 Induction intercrine (Scya7) (mouse liver [1]): 11.4 fold
- IL-1 Induction interferon regulatory factor 1 (Irf1) (mouse liver [1]): 9.0 fold
- IL-1 Induction junB (Junb) (mouse liver [1]): 2.6 fold
- IL-1 Induction lipocalin 2 (Lcn2) (mouse liver [1]): 2.9 fold
- IL-1 Induction lkB-beta (Nfkbib) (mouse liver [1]): 2.8 fold
- IL-1 Induction m-myc (Myc) (mouse liver [1]): 3.4 fold
- IL-1 Induction macrophage interferon inducible protein 10 (Scyb10) (mouse liver [1]): 39.3 fold
- IL-1 Induction metalloproteinase-disintegrin (Adamts1) (mouse liver [1]): 4.6 fold
- IL-1 Induction molecule possessing ankyrin-repeats induced by LPS (aa614971) (mouse liver [1]): 22.7 fold
- IL-1 Induction myocyte-enriched calcineurin interactin protein (Dscrl) (mouse liver [1]): 9.3 fold
- IL-1 Induction noctumin (Ccr4) (mouse liver [1]): 9.0 fold
- IL-1 Induction p65 NF-kappa B (Rela) (mouse liver [1]): 2.4 fold
- IL-1 Induction phospholipid scramblase 1 (Plscr1) (mouse liver [1]): 5.6 fold
- IL-1 Induction protein tyrosine phosphatase 4a1 (Ptp4a1) (mouse liver [1]): 1.2 fold
- IL-1 Induction regulator for ribosome resistance homolog (Rrr) (mouse liver [1]): 3.3 fold
- IL-1 Induction relB (Relb) (mouse liver [1]): 7.9 fold
- IL-1 Induction rhoB (Arhb) (mouse liver [1]): 18.5 fold
- IL-1 Induction serum amyloid A 3 (Saa3) (mouse liver [1]): 36.0 fold
- IL-1 Induction serum amyloid A 4 (Saa4) (mouse liver [1]): 1.9 fold
- IL-1 Induction suppressor of cytokine signaling 2 (Cish2) (mouse liver [1]): 1.7 fold
- IL-1 Induction suppressor of cytokine signaling 3 (Cish3) (mouse liver [1]): 6.0 fold
- IL-1 Induction transglutaminase (Tgm2) (mouse liver [1]): 8.0 fold
- EE Induction C1Qc (C1qc) (mouse liver [2]): 2.3
- EE Induction C1qB (C1qb) (mouse liver [2]): 2.8
- EE Induction CD53 (Cd53) (mouse liver [2]): 2.9
- EE Induction CD68 antigen (Cd68) (mouse liver [2]): 3.1
- EE Induction CD97 (Cd97) (mouse liver [2]): 6.0
- EE Induction Cytochrome P450, 17 (Cyp17) (mouse liver [2]): 32.3
- EE Induction F4/80 (Emr1) (mouse liver [2]): 3.1
- EE Induction H2A histone family, member X (H2afx) (mouse liver [2]): 5.1
- EE Induction Keratin complex 2, basic, gene 4 (Krt2-4) (mouse liver [2]): 38.0
- EE Induction apolipoprotein A-IV (Apoa4) (mouse liver [2]): 3.5
- EE Induction apolipoprotein C2 (Apoc2) (mouse liver [2]): 2.2
- EE Induction apoptosis inhibitory 6 (Api6) (mouse liver [2]): 3.3
- EE Induction cadherin 1 (Cdh1) (mouse liver [2]): 2.6
- EE Induction cathepsin S (Ctss) (mouse liver [2]): 4.0
- EE Induction cell division cycle 2 homolog A (Cdc2a) (mouse liver [2]): 4.6
- EE Induction colony stimulating factor 1 receptor (Csf1r) (mouse liver [2]): 2.8
- EE Induction creatine kinase B (Ckb) (mouse liver [2]): 13.0
- EE Induction cytochrome P450, 7b1 (Cyp7b1) (mouse liver [2]): 21.1
- EE Induction desmocollin 2 (Dsc2) (mouse liver [2]): 5.0
- EE Induction fatty acid binding protein 7, brain (Fabp7) (mouse liver [2]): 4.8
- EE Induction interferon activated gene 203 (lfi203) (mouse liver [2]): 2.5
- EE Induction interleukin 17 receptor (Il17r) (mouse liver [2]): 3.5
- EE Induction leukemia inhibitory factor receptor (Lifr) (mouse liver [2]): 5.1
- EE Induction lymphocyte antigen 86 (Ly86) (mouse liver [2]): 4.3
- EE Induction lysosomal thiol reductase IP30 precursor (IP30) (mouse liver [2]): 3.7
- EE Induction mannose receptor, C type 1 (Mrc1) (mouse liver [2]): 2.6
- EE Induction myo-inositol-1-phosphate synthase (aa221219) (mouse liver [2]): 167.1
- EE Induction properdin (Pfc) (mouse liver [2]): 2.9
- EE Induction prostaglandin D2 synthase (Ptgds) (mouse liver [2]): 72.8
- EE Induction proteinase 3 (Prtn3) (mouse liver [2]): 24.1
- EE Induction pyrroline-5-carboxylate synthetase (Pycs) (mouse liver [2]): 3.3
- EE Induction serum/glucocorticoid regulated kinase (Sgk) (mouse liver [2]): 4.5
- EE Induction signal transducer and activator of transcription 5A (Stat5a) (mouse liver [2]): 4.1
- EE Induction solute carrier family 11, member 1 (Slc11a1) (mouse liver [2]): 3.6
- EE Induction stathmin (Kist) (mouse liver [2]): 3.5
- EE Induction testosterone 16-alpha-hydroxylase (C-16-alpha) (Cyp2d9) (mouse liver [2]): 2.3
- EE Induction trefoil factor 3, intestinal (Tff3) (mouse liver [2]): 16.3
- EE Induction type llb Na/phosphate-cotransporter (Npt2b) (mouse liver [2]): 13.5
- IL-1β induction of Fnk, JAB, LIX, and bcl-3 in the liver (Fnk, JAB, LIX, and bcl-3; liver): significantly blocked
- IL-1β induction of Fnk, JAB, LIX, or bcl-3 in the lung (Fnk, JAB, LIX, and bcl-3; lung): no effect
- IL-1β induction of Fnk and JAB in the spleen (Fnk, JAB, LIX, and bcl-3; spleen): blocked
- EE inhibition of IL-1β regulation of Fnk, JAB, LIX, bcl-3, SHP in animals lacking ERβ vs wild type ([3]; 129 ERβKO mice vs C57BL/6 wild type, 10 ug/kg/day EE 5 days, IL-1β 1 hour): comparable
- effect on IL-1β regulation of Fnk, JAB, LIX, bcl-3, SHP in animals lacking ERα ([3]; C57BL/6 ERαKO mice, 10 ug/kg/day EE 5 days, IL-1β 1 hour): no effect
- effect on regulation of liver Fnk, JAB, LIX, bcl-3 and SHP expression vs IL-1β alone ([3]; mice, 100 ug/kg/day EE, 1 or 10 mg/kg/day E2, 30 mg/kg/day genistein, 5 mg/kg/day raloxifene, 10 mg/kg/day ICI182780, plus IL-1β): greatest effect
- IL-1 repression of SHP expression ([3]; mouse liver, realtime PCR, vehicle treated or 100 ug/kg/day EE treated animals): 85%
- IL-1 induction of bcl-3 ([3]; mouse liver, realtime PCR, vehicle treated or 100 ug/kg/day EE treated mice, IL-1 vs PBS): 5.2 fold
- IL-1β fold induction of Fnk, JAB, and LIX ([3]; mouse liver, 100 ug/kg/day EE pretreated vs vehicle): reduced
- IL-1β fold regulation for bcl-3 and SHP ([3]; mouse liver, 100 ug/kg/day EE treated vs vehicle): the same
- inhibition of IL-1β induction of Fnk, JAB, LIX and bcl-3 ([3]; mouse liver, 100 ug/kg/day EE, 30 mg/kg/day genistein, 5 mg/kg/day raloxifene): inhibited
- basal expression of SHP [3, 4]: increased
- basal expression of bcl-3 [3, 4]: repressed

Source: patent publication US20050221328A1, “Inhibitors of inflammatory gene activity and cholesterol biosynthesis” (Wyeth, priority 2002, published 2005)
